The subject of assay [1] is CHO-K1+EA-NLS/NRS+GR-PL cells. Briefly: EFC mitotic index assay, CHO-K1+EA-NLS/NRS+GR-PL cells, antibiotic selected pool (DX M19/GR pool). The assay is classed as cell-based. The note with it: 24 hours, 30 min read.
Assay [2] relates to C2C12+EA-NLS/NRS+GR-PL cells. Briefly: EFC mitotic index assay, C2C12+EA-NLS/NRS+GR-PL cells (Stanford GR cells). It is filed as cell-based, mouse. Conditions: for Avg luminescence readout / R1 luminescence readout / R3 luminescence readout / Ratio (Avg vs 0 conc): 24 hours, 30 min read.
The test system of assay [3] is Clone #69 CHO-K1 cells expressing EA-NLS/NRS and GR-PL. Description: EFC assay in stable clone #69 (CHO-K1, EA-NLS/NRS and GR-PL) with or without RU486 pre-incubation. The assay is classed as cell-based. Conditions: for Avg luminescence readout / R1 luminescence readout / R3 luminescence readout / Ratio (Avg vs 0 conc): overnight, vehicle pre-incubation. On the procedure:
In the next experiment, a stable clone (clone #69) expressing both EA-NLS/NRS and GR-PL was isolated in a CHO-K1 parental background. […] 20,000 cells/well were plated in a 96 well white coming multi-well plate and allowed to adhere overnight. The next day, the cells were washed two times with serum free F12 media and 100 μL of serum free F12 media was added to the cells. The cells were then incubated in either vehicle (ethanol-1% final concentration) or 10 μM RU486 for one hour. To the cells, three different concentrations of dexamethasone (300, 100, 30 μM) (an agonist of GR), RU486 (30, 10, 3.33 μM), colchicine (1, 0.3, 0.1 μ/mL) or nocodazole (10, 3.33, 1.11 μg/mL) were added and the incubation went overnight at 37° C. with 5% CO2. The next day, the media was aspirated off and 100 μL of Tropix/ABI Gal screen cell lysis/substrate reagent was added to the cells. The plate was read on the Victor II reader at 30, 60 and 120 minutes.

Assay [4] has as its system CHO-K1+cyto-EA cells transfected with cJUN-PL. Briefly: EFC mitotic index assay, CHO-K1+cyto-EA cells transiently transfected with cJUN-PL. It is filed as cell-based. Conditions: for Avg luminescence readout / R1 luminescence readout / R3 luminescence readout / Ratio (Avg vs 0 conc): overnight.
Assay [5] concerns the target EA-NLS/NRS (β-galactosidase enzyme acceptor fragment fused to a nuclear localization signal / nuclear retention signal) (E. coli) [β-galactosidase: P00722]. Description: cell-based or functional assay.
Assay [6] deals with cyto-EA (β-galactosidase enzyme acceptor fragment localized in the cytoplasm) (E. coli) [β-galactosidase: P00722]. Description: cell-based or functional assay.
Where [7] appears, read: High conc (nocodazole 10 μg/mL, colchicine 1 μ/mL, dexamethasone 300 μM, RU486 30 μM).
Setting [8] is: Low conc (nocodazole 1.11 μg/mL, colchicine 0.1 μ/mL, dexamethasone 30 μM, RU486 3.33 μM).
[9] abbreviates: Med conc (nocodazole 3.33 μg/mL, colchicine 0.3 μ/mL, dexamethasone 100 μM, RU486 10 μM).

Bounds are passed on as bounds.

With `COC(=O)Nc1nc2ccc(C(=O)c3cccs3)cc2[nH]1` [Nocodazole, nocodazole], the Avg luminescence readout was 15528 in assay [1] (0.3 μg/mL); 24777 in assay [1] (1.0 μg/mL); 23766 in assay [1] (3.3 μg/mL); 25709 in assay [1] (10.0 μg/mL); 4443 in assay [2] (0.3 μg/mL); 6354 in assay [2] (1.0 μg/mL). Besides, the Avg luminescence readout in assay [2] (3.3 μg/mL) amounted to 6068; in assay [2] (10.0 μg/mL), 5867; in assay [3] (setting [7]), 11592; in assay [3] (setting [8]) it was 11575; in assay [3] (setting [9]) it was 11445; in assay [4] (3.0 μg/mL), 9887. The Avg luminescence readout amounted to 12728 in assay [4] (10.0 μg/mL), 11870 in assay [4] (30.0 μg/mL) and 14898 in assay [4] (100.0 μg/mL). Further, the R1 luminescence readout worked out at 15003 in assay [1] (0.3 μg/mL); 23225 in assay [1] (1.0 μg/mL); 24010 in assay [1] (3.3 μg/mL); 22978 in assay [1] (10.0 μg/mL); 4243 in assay [2] (0.3 μg/mL); 6029 in assay [2] (1.0 μg/mL). In addition, the R1 luminescence readout in assay [2] (3.3 μg/mL) amounted to 5669; in assay [2] (10.0 μg/mL), 4401; in assay [3] (setting [7]), 11504; in assay [3] (setting [8]), 11488; in assay [3] (setting [9]), 11364; in assay [4] (3.0 μg/mL), 9509. The R1 luminescence readout in assay [4] (10.0 μg/mL) is on record as 11991; in assay [4] (30.0 μg/mL), 10083; in assay [4] (100.0 μg/mL), 13010. Also, the R3 luminescence readout in assay [1] (0.3 μg/mL) turned out to be 13585; in assay [1] (1.0 μg/mL), 24165; in assay [1] (3.3 μg/mL), 23172; in assay [1] (10.0 μg/mL), 28584; in assay [2] (0.3 μg/mL), 4599; in assay [2] (1.0 μg/mL), 6678. Moreover, the R3 luminescence readout turned out to be 6360 in assay [2] (3.3 μg/mL); 5806 in assay [2] (10.0 μg/mL); 11616 in assay [3] (setting [7]); 11606 in assay [3] (setting [8]); 11457 in assay [3] (setting [9]); 9751 in assay [4] (3.0 μg/mL). The R3 luminescence readout came out at 12371 in assay [4] (10.0 μg/mL), 12287 in assay [4] (30.0 μg/mL) and 16060 in assay [4] (100.0 μg/mL). The “Ratio (Avg vs 0 conc)” value was determined as 2 in assay [1] (0.3 μg/mL); 3 in assay [1] (1.0 μg/mL); 3 in assay [1] (3.3 μg/mL); 3 in assay [1] (10.0 μg/mL); 1 in assay [2] (0.3 μg/mL); 2 in assay [2] (1.0 μg/mL). Moreover, the “Ratio (Avg vs 0 conc)” value stood at 2 in assay [2] (3.3 μg/mL); 2 in assay [2] (10.0 μg/mL); 4 in assay [3] (setting [7]); 4 in assay [3] (setting [8]); 4 in assay [3] (setting [9]); 1.4 in assay [4] (3.0 μg/mL). Moreover, the “Ratio (Avg vs 0 conc)” value was 1.8 in assay [4] (10.0 μg/mL), 1.6 in assay [4] (30.0 μg/mL) and 2.1 in assay [4] (100.0 μg/mL). The “increase in EFC activity” value in assay [2] (treatment 1-10 μg/mL) is on record as around 2 fold; in assay [4] (overnight incubation) it was around 2.1 fold. Besides, the “effect of incubation with RU486 on the EFC response (in words)” value in assay [3] (10 μM RU486 pre-incubation for one hour) is recorded as “not blocked by the incubation with RU486”.

In assay [5], “GR-PL (human glucocorticoid receptor fused to PL, a 55 mer α-fragment of β-galactosidase) (from UniProt P04150 1-777)” registered an EFC (β-galactosidase chemiluminescence after lysis), CHO-K1 pool, Taxol, nocodazole and colchicine overnight below 4 fold; an EFC activity (β-galactosidase chemiluminescence after lysis), C2C12 cells, nocodazole 1-10 µg/mL of 2 fold; an EFC activity, CHO-K1 clone #69, nocodazole and colchicine of 3 to 4 fold.

In assay [6], “cJUN-PL (c-Jun fused to the PL β-galactosidase enzyme donor fragment)” registered an EFC activity, CHO-K1 cyto-EA cells transiently transfected with cJUN-PL, nocodazole and colchicine of 2.1 fold.

The values are drawn from US20070015232A1, “Mitotic index assay” (DiscoveRx, Inc., priority 2005, published 2007).
